Results: patent US9670242B2, “Tetracyclic anthraquinone derivatives” (Tianjin Hemay Bio-Tech Co., Ltd, priority 2012, dated 2017)

Experiments:
Format in all cases: cell-based, human
22Rv1 cells = assay: 22Rv1 cell growth inhibition test (SRB assay); settings: growth inhibition at 222 nM, 73 h
Protocol: 22Rv1 Cell Growth Inhibition Test (SRB Assay)
Cell strains: 22Rv1 (human prostate cancer cell strains); SRB: 0.4% (w/v) working solution was formulated with 1% glacial acetic acid, reserved at 4° C.; antitumor compounds; DMSO.
(§1) II. Reagents and Consumable Materials
(§2) Culture medium: 90% RPMI-1640+10% FBS; Pancreatin (0.25% (w/v) solution was formulated with PBS, 0.53 mM of EDTA was added in the formulation); PBS; 96-well culture plate.
(§3) 1. A plate (10 cm) of cells in logarithmic growth phase that were normally cultured was collected;
(§4) 2. The culture solution was sucked out. The plate was washed with 5 mL of PBS once or twice;
(§5) 3. 1.5 mL of 0.25% pancreatin was added to the plate to infiltrate the cells;
(§6) 4. The pancreatin was sucked out. The culture plate was placed in an incubator. Digestion was carried out for about 3 min at 37° C.;
(§7) 5. 4 mL of complete culture solution was added to the culture plate to stop the digestion. The cells were carefully scoured with micropipette (1 ml) to give a uniform single cell suspension. The suspension was implanted into a 96-well cell culture plate by 7000 cells/100 μL per well. The culture plate was incubated overnight under 5% CO2 at 37° C. In day 2, 100 μL of culture solution comprising a compound was added in each well. The plate was further incubated for 73 h under 5% CO2 at 37° C.;
(§8) 6. The culture solution was sucked out. 100 uL of TCA fixed cells which were diluted to 10% were added to each well. The plate was kept in a refrigerator for 1 h at 4° C.
(§9) 7. TCA stationary liquid was sucked out. Each well was washed with 150 μL of ddH2O five times;
(§10) 8. After the stationary liquid was cleansed, the plate was dried in the air at the room temperature;
(§11) 9. 60 μL of SRB staining solution was added in each well. The well was stained for 15 min at the room temperature;
(§12) 10. The SRB staining solution was sucked out. Each well was washed with 150 μL of 1% glacial acetic acid five times;
(§13) 11. After the SRB staining solution was cleansed, the plate was dried in the air at the room temperature;
(§14) 12. 100 μL of 10 mM Tris was added in each well. The plate was vibrated to dissolve out SRB;
(§15) 13. OD values were determined at 570 nM.
(§16) IV. Results and Treatments
(§17) 1. Calculation of Relative Inhibition Ratio The inhibition ratio of a compound on cell growth=(PC−n)/(PC−NC)×100%
(§18) PC: OD values of cells after normal growth in control wells without a compound;
(§19) n: OD values of cells after growth in test wells with a compound;
(§20) NC: Background OD values of blank wells without a compound and cells.

BxPc-3 cells = assay: BxPc-3 cell growth inhibition test (MTT assay); settings: growth inhibition at 2000 nM, 70 h
Protocol: BxPc-3 Cell Growth Inhibition Test (MTT Assay)
Cell strains: BxPC-3 (human pancreatic cancer cell strains); MTT; antitumor compounds; DMSO.
as §1, §2, §3, §4
(§21) 3. PBS was sucked out. 1.5 mL of 0.25% pancreatin was added to infiltrate the cells;
4. The culture plate was placed in an incubator. Digestion was carried out for about 8 min at 37° C.;
(§22) 5. 4.5 mL of complete culture solution was added to the culture plate to stop the digestion. The cells were carefully scoured with micropipette (1 ml) to give a uniform cell suspension. The suspension was implanted into a 96-well cell culture disc by 5000 cells/100 μL per well. The culture plate was incubated overnight under 5% CO2 at 37° C. In day 2, 100 μL of culture solution comprising a compound was added in each well. The plate was further incubated for 70 h under 5% CO2 at 37° C.;
(§23) 6. The culture solution was sucked out;
(§24) 7. 100 μL of serum-free culture solution containing 0.5 mg/mL MTT was added in each well. The plate was incubated for 3 h;
(§25) 8. The culture solution was carefully sucked out;
(§26) 9. 100 μL of DMSO was added into each well and vibrated to dissolve;
(§27) 10. OD values were determined at 490 nM.
as §16, §17, §18, §19, §20

NCI-H446 cells = assay: NCI-H446 cell growth inhibition test (MTT assay); settings: growth inhibition at 222 nM, 70 h
Protocol: NCI-H446 Cell Growth Inhibition Test (MTT Assay)
Cell strains: NCI-H446 (human small cell lung cancer cell strains); MTT; antitumor compounds; DMSO.
as §1, §2, §3, §4, §21
4. The culture plate was placed in an incubator. Digestion was carried out for about 3 min at 37° C.;
as §22, with “3” for “4.5”, “4000” for “5000”
as §23, §24, §25, §26, §27, §16, §17, §18, §19, §20

MDA-MB-453 cells = assay: MDA-MB-453 cell growth inhibition test (SRB assay); settings: growth inhibition at 2000 nM, 69.5 h
Protocol: MDA-MB-453 Cell Growth Inhibition Test (SRB Assay)
Cell strains: MDA-MB-453 (human breast cancer cell strains); SRB: 0.4% (w/v) working solution was formulated with 1% glacial acetic acid, reserved at 4° C.; antitumor compounds; DMSO.
as §1
Culture medium: 90% L15+10% FBS; pancreatin (0.25% (w/v) solution was formulated with PBS, 0.53 mM of EDTA was added in the formulation); PBS; 96-well culture plate.
as §3, §4, §5, §6
as §7, with “well.” for “well. The plate was further incubated for 73 h under 5% CO2 at 37° C.;”
The plate was further incubated for 69.5 h under 5% CO2 at 37° C.;
as §8, §9, §10, §11, §12, §13, §14, §15, §16, §17, §18, §19, §20

SK-OV-3 cells = assay: SK-OV-3 cell growth inhibition test (MTT assay); settings: growth inhibition at 667 nM, 69 h
Protocol: SK-OV-3 Cell Growth Inhibition Test (MTT Assay)
Cell strains: SK-OV-3 (human ovarian cancer cell strains); MTT; antitumor compounds; DMSO.
as §1
Culture medium: 90% McCoy's 5A+10% FBS; Pancreatin (0.25% (w/v) solution was formulated with PBS, 0.53 mM of EDTA was added in the formulation); PBS; 96-well culture plate.
as §3, §4, §21
4. The pancreatin was sucked out. The culture plate was placed in an incubator. Digestion was carried out for about 5 min at 37° C.;
as §22, with “4000” for “5000”, “69” for “70”
as §23, §24, §25
9. 100 μL of DMSO was added in each well and vibrated to dissolve;
as §27, §16, §17, §18, §19, §20

Row | Compound | Inhibition Ratio (%) (22Rv1 cells) | Inhibition Ratio (%) (BxPc-3 cells) | Inhibition Ratio (%) (NCI-H446 cells) | Inhibition Ratio (%) (MDA-MB-453 cells) | Inhibition Ratio (%) (SK-OV-3 cells)
1 | COc1cccc2c1C(=O)c1c(O)c3c(c(O)c1C2=O)CC(O)(C(=O)COC(=O)CCC(N)=O)CC3OC1CC(n2cccc2)C(O)C(C)O1 (stereo not shown) [Example 66] | 59 | 83.1 | 56.2 | 73.9 | 66.5
2 | COc1cccc2c1C(=O)c1c(O)c3c(c(O)c1C2=O)CC(O)(C(=O)COC(=O)CCC(=O)Nc1ccncc1)CC3OC1CC(n2cccc2)C(O)C(C)O1 (stereo not shown) [Example 22] | 56.3 | 82 | 62.1 | 71.1 | 60.3
3 | COc1cccc2c1C(=O)c1c(O)c3c(c(O)c1C2=O)CC(O)(C(=O)COC(=O)CCC(=O)N1CCN(CCCN(C)C)CC1)CC3OC1CC(n2cccc2)C(O)C(C)O1 (stereo not shown) [Example 44] | 48.5 | 78.5 | 46.3 | 68.5 | 52.3
4 | COc1cccc2c1C(=O)c1c(O)c3c(c(O)c1C2=O)CC(O)(C(=O)COC(=O)CCC(=O)NCCc1ccncc1)CC3OC1CC(n2cccc2)C(O)C(C)O1 (stereo not shown) [Example 32] | 61.7 | 83.4 | 59.3 | 78.3 | 59.7
5 | COc1cccc2c1C(=O)c1c(O)c3c(c(O)c1C2=O)CC(O)(C(=O)COC(=O)CCCC(=O)NCCc1ccccn1)CC3OC1CC(n2cccc2)C(O)C(C)O1 (stereo not shown) [Example 35] | 58.5 | 81.3 | 57.2 | 77.1 | 57.8
6 | CCN1CCN(C(=O)CCC(=O)OCC(=O)C2(O)Cc3c(O)c4c(c(O)c3C(OC3CC(n5cccc5)C(O)C(C)O3)C2)C(=O)c2c(OC)cccc2C4=O)CC1 (stereo not shown) [Example 40] | 50.5 | 76.5 | 49 | 73 | 47.9
7 | COc1cccc2c1C(=O)c1c(O)c3c(c(O)c1C2=O)CC(O)(C(=O)COC(=O)CCC(=O)NCc1cccnc1)CC3OC1CC(n2cccc2)C(O)C(C)O1 (stereo not shown) [Example 28] | 63.1 | 84.7 | 65.8 | 81.9 | 66.2
8 | COc1cccc2c1C(=O)c1c(O)c3c(c(O)c1C2=O)CC(O)(C(=O)COC(=O)CCC(=O)NCCOCCOCCOCCO)CC3O[C@H]1C[C@H](n2cccc2)[C@H](O)[C@H](C)O1 (stereo partly drawn) [Example 1, 10-((3′-(pyrrol-1-yl)-2′,3′,6′-trideoxy-alphal-l-lyxo-hexylpyranyl)oxy)-7,8,9,10-tetrahydro-6,8,11-trihydroxy-13-oxo-14-(4-(2-(2-(2-(2-hydroxyethoxy)ethoxy)ethoxy)ethylamino)-4-oxo-butyrato)-1-methoxy-5,12-naphthalenedione] | 52.2 | 82.5 | 43.2 | 77.7 | 57.3
9 | COc1cccc2c1C(=O)c1c(O)c3c(c(O)c1C2=O)CC(O)(C(=O)COC(=O)CCC(=O)NCc1ccccn1)CC3OC1CC(n2cccc2)C(O)C(C)O1 (stereo not shown) [Example 30] | 62.3 | 85.2 | 61 | 79.9 | 59.9
10 | COc1cccc2c1C(=O)c1c(O)c3c(c(O)c1C2=O)CC(O)(C(=O)COC(=O)CCC(=O)NCCO)CC3OC1CC(n2cccc2)C(O)C(C)O1 (stereo not shown) [Example 60] | 52.9 | 83.4 | 52.5 | 76.3 | 58.9
11 | COc1cccc2c1C(=O)c1c(O)c3c(c(O)c1C2=O)CC(O)(C(=O)COC(=O)CCC(=O)NS(C)(=O)=O)CC3OC1CC(n2cccc2)C(O)C(C)O1 (stereo not shown) [Example 94] | 60.7 | 84.9 | 48.4 | 75.8 | 71.4
12 | COc1cccc2c1C(=O)c1c(O)c3c(c(O)c1C2=O)CC(O)(C(=O)COC(=O)CCC(=O)Nc1ccc(N2CCOCC2)nc1)CC3OC1CC(n2cccc2)C(O)C(C)O1 (stereo not shown) [Example 20] | 60.9 | 84.1 | 68 | 82.4 | 62.6
13 | COc1cccc2c1C(=O)c1c(O)c3c(c(O)c1C2=O)CC(O)(C(=O)COC(=O)CCC(=O)NS(=O)(=O)c1ccccc1)CC3OC1CC(n2cccc2)C(O)C(C)O1 (stereo not shown) [Example 95] | 51.3 | 80.6 | – | 68.2 | 66.3
14 | COc1cccc2c1C(=O)c1c(O)c3c(c(O)c1C2=O)CC(O)(C(=O)COC(=O)CCC(=O)NCCCN1CCCC1)CC3OC1CC(n2cccc2)C(O)C(C)O1 (stereo not shown) [Example 18] | – | 70.7 | – | – | 47.4
15 | COc1cccc2c1C(=O)c1c(O)c3c(c(O)c1C2=O)CC(O)(C(=O)COC(=O)CCC(=O)NN1CCN(C)CC1)CC3OC1CC(n2cccc2)C(O)C(C)O1 (stereo not shown) [Example 14] | 52.1 | 81.8 | – | 74.4 | 53.6
